The nature of data set [1]: HPLC retention times to compare lipophilicities. Format: physicochemical. As to conditions: Kinetex EVO C18 column, same gradient A to B; higher retention time = more lipophilic. The protocol:
Experimentally, one can also compare lipophilicities of molecules by performing HPLC using the same elution gradient. Molecules that have higher affinities with the hydrophobic C18-material of the column are more lipophilic and as a result have a higher retention time.
Methods: HPLC-MS(SIM) and HPLC-ELSD were performed on a Phenomenex Kinetex 5 micrometer EVO C18 100A LC-column (50×2.1 mm) employing the same gradient from A to B eluent, where A=20 mM NH4HCO2 in H2O with 0.1 v/v % formic acid, and B=2-propanol/MeCN/H2O 85:15:5, also with 20 mM NH4HCO2 and 0.1 v/v % formic acid.

The nature of data set [2]: Solubility test in PBS buffer. In kind it is physicochemical. As to conditions: PBS pH 7.4, 0.2 mg/mL; for Appearance at 37° C.: 1 minute in 37° C. water bath; for Appearance at RT: room temperature. As for the experimental part:
First, compounds were weighed in a vial and PBS buffer (137, 2.7, 10 and 1.8 mM in NaCl, KCl, Na2HPO4, KH2PO4, respectively; pH=7.4) was added, such that the concentration would become 0.2 mg/mL in case full dissolution would take place. The sample was shaken, left to stand for an hour, shaken again, and then the appearance of the solution at room temperature (RT) was checked. Next, the sample was warmed for 1 minute in a water bath of 37° C., and the appearance of the solution was checked again. In the below table the results are compiled.

Data set [3] can be described thus: Solubility test in demineralized water. Format: physicochemical. As to conditions: 0.3 mM, film, sonicated, overnight. The protocol:
Next, compounds were weighed and dissolved in chloroform/methanol. The solutions were left to dry in a vial forming a film of the materials. The vials were put in vacuo to remove traces of organic solvent. Demineralized water was added, such that the concentration of the compounds would become 0.3 mM in case full dissolution would take place (0.3 mM corresponds to 0.3 mg/mL for a MW=1000 Dalton compound). The vial was briefly sonicated in a water bath, left to stand overnight, and once again sonicated (sonication at RT). The appearances of the solutions at RT were checked to assess solubilities. In the below table the results are compiled.

In a further data set the target is T1, human NOD2 (hNOD2) (Homo sapiens, UniProt Q9HC29).
T1 construct: host or cells: HEK-Blue hNOD2 cells
In words: In vitro NOD2 activation assay in HEK-Blue hNOD2 cells. Format: cell-based. As to conditions: overnight incubation, FIG. 3. The protocol:
The stimulation of human NOD2 (hNOD2) by compounds disclosed herein was studied by monitoring activation of NF-κB in HEK-Blue™ hNOD2 cells (Invitrogen). 50,000 HEK-Blue™ hNOD2 cells were seeded in HEK-Blue™ Detection Medium in flat-bottom tissue culture plates. Concentration ranges of the test article (compounds diluted from DMSO-solutions (17.8 mmoL/L), first with demineralized water and then with PBS to the desired concentrations) were added to the cells in the tissue culture plates. Cells were incubated overnight at 37° C. and 5% CO2. The following day, supernatants were collected in an ELISA plate and the OD was measured at 620 nm using a spectrophotometer.
The signal in this assay is based on NOD2 stimulation with a ligand which subsequently activates NF-κB and AP-1, resulting in the production of SEAP. Levels of SEAP were then determined with HEK-Blue™ Detection medium (Invitrogen). The hydrolysis of the substrate in the medium by SEAP produces a purple/blue color that was then measured with an Absorbance microplate reader. OD values are mapped based on test article concentration and are depicted in FIG. 3. Assay performance was validated with muramyl dipeptide (CAS number [53678-77-6]).

Data set [4] in a line: Degradation by augmented oxidation test. Format: physicochemical. As to conditions: 12% hydrogen peroxide in water, 80° C., 4 hours. The protocol:
The reference compounds MDP and MDP(Bn) as well as the Bn-substituted compounds from Example 7 (i.e. MDP(Bn)-DSPE[click] and Example 14 (i.e. MTP(Bn)-a-DPPE) were mixed with 12% hydrogen peroxide in water and were heated to 80° C. for 4 hours, in order to get a fast degradation of the molecules by oxidation, mimicking slower in-vivo oxidation events.
The resulting reaction mixtures were diluted with acetonitrile and water (1:1) for the MDP and MDP(Bn) test solutions, or with iPrOH, acetonitrile and water (40:7.5:52.5) with 0.1% formic acid and 20 mM ammonium formate for the MDP(Bn)-DSPE[click] and the MTP(Bn)-a-DPPE solutions. The 4 diluted samples were analyzed by HPLC-MS. For reference, the 4 starting materials were also analyzed by HPLC-MS, as well as MDP-DSPE[click] and MTP-a-DPPE, i.e. the de-benzylated reference compounds to the Bn-substituted test molecules.

T1 sequence (Q9HC29 whole entry): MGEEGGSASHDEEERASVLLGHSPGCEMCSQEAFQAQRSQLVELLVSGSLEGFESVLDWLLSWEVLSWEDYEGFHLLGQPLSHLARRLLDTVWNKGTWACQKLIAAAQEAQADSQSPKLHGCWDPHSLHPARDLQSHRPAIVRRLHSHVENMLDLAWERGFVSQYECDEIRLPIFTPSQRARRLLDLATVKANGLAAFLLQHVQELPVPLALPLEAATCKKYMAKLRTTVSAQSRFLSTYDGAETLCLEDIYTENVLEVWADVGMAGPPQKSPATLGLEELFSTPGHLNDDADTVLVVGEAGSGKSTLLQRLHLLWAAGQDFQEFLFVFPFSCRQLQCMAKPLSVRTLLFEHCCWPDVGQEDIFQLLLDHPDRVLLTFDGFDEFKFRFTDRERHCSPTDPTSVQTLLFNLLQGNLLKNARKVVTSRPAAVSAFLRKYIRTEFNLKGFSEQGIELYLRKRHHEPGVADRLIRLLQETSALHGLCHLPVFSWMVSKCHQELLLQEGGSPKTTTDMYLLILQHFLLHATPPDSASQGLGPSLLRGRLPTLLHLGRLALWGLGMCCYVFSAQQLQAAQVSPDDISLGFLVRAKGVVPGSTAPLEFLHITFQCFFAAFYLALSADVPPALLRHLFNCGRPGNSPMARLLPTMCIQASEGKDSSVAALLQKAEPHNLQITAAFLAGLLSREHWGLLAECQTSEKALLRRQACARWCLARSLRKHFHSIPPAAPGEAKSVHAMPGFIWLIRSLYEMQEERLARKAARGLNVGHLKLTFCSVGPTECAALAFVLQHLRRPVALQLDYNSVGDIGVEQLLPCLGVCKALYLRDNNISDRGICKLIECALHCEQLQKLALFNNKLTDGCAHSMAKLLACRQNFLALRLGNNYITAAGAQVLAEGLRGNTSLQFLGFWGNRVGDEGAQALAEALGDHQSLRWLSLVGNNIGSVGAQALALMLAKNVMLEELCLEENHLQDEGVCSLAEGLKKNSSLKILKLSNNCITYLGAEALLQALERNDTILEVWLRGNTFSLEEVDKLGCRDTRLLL

In the case of `CCCCCCCCCCCCCCCCCC(=O)OC[C@H](COP(=O)(O)OCCNC(=O)Cn1cc(CNC(=O)CC[C@@H](NC(=O)[C@H](C)NC(=O)[C@@H](C)O[C@H]2[C@H](O)[C@@H](CO)OC(O)[C@@H]2NC(C)=O)C(N)=O)nn1)OC(=O)CCCCCCCCCCCCCCCCC` (stereo partly shown) [Example 2, MDP-DSPE [Click]], in data set [1], the “HPLC-ELSD t” value turned out to be 4.58 min and the “HPLC-MS t” value is 4.46 min. For the same compound, in data set [2], the “Appearance at 37° C.” value is reported as “hazy” and the “Appearance at RT” value is “hazy”. Moreover, the “Appearance at RT” value in data set [3] is reported as “Gelly/hazy/precipitate”. Further, at human NOD2 (hNOD2), the “NOD2 activation (NF-κB/SEAP reporter, OD at 620 nm)” value (“NOD2 activation” for short) was “comparable”.

With `CC(=O)N[C@H]1C(O)O[C@H](CO)[C@@H](O)[C@@H]1O[C@H](C)C(=O)N[C@@H](C)C(=O)N[C@H](CCC(=O)NCc1cn(CC(=O)O[C@H]2CC[C@@]3(C)C(=CC[C@H]4[C@@H]5CC[C@H]([C@H](C)CCCC(C)C)[C@@]5(C)CC[C@@H]43)C2)nn1)C(N)=O` (stereo partly shown) [Example 3, MDP-Chol [Click]], in data set [2], the “Appearance at 37° C.” value is “hazy” and the “Appearance at RT” value was “suspension”. For the same compound, the “Appearance at RT” value in data set [3] is “Gelly/hazy/precipitate”. On human NOD2 (hNOD2), the “NOD2 activation” value is “comparable”.

For `CCCCCCCCCCCCCCCCCC(=O)OC[C@H](COP(=O)(O)OCCNC(=O)Cn1cc(CNC(=O)CC[C@@H](NC(=O)[C@H](C)NC(=O)[C@@H](C)O[C@H]2[C@H](O)[C@@H](CO)OC(OCc3ccccc3)[C@@H]2NC(C)=O)C(N)=O)nn1)OC(=O)CCCCCCCCCCCCCCCCC` (stereo partly shown) [Example 7, MDP(Bn)-DSPE [Click]], in data set [1], the “HPLC-ELSD t” value was determined as 5.16 min and the “HPLC-MS t” value amounted to 5.16 min. Besides, in data set [2], the “Appearance at 37° C.” value was “hazy” and the “Appearance at RT” value was “suspension”. For the same compound, the “Appearance at RT” value in data set [3] is “Hazy”. The “Oxidative degradation, products by HPLC-MS” value in data set [4] was “mainly degraded via oxidation of the Bn-group to a benzoate group (+14) followed by hydrolysis of the benzoate (−104)”. Also, the “NOD2 activation” value on human NOD2 (hNOD2) is recorded as “comparable”.

Take `CC(=O)N[C@H]1[C@@H](OCc2ccccc2)O[C@H](CO)[C@@H](O)[C@@H]1O[C@H](C)C(=O)N[C@@H](C)C(=O)N[C@H](CCC(=O)NCc1cn(CC(=O)O[C@H]2CC[C@@]3(C)C(=CC[C@H]4[C@@H]5CC[C@H]([C@H](C)CCCC(C)C)[C@@]5(C)CC[C@@H]43)C2)nn1)C(N)=O` [Example 8, MDP(Bn)-Chol[Click]]: in data set [2], the “Appearance at 37° C.” value is given as “suspension”. Also, the “Appearance at RT” value is “suspension” in data set [2] and “Precipitate” in data set [3]. Further, on human NOD2 (hNOD2), the “NOD2 activation” value is listed as “able to activate NOD2, but seemingly to a lesser extent”.

`CCCCCCCCCCCCCCCCCC(=O)OCc1cn(CCCC[C@H](NC(=O)CC[C@@H](NC(=O)[C@H](C)NC(=O)[C@@H](C)O[C@H]2[C@H](O)[C@@H](CO)OC(OCc3ccccc3)[C@@H]2NC(C)=O)C(N)=O)C(N)=O)nn1` (stereo partly shown) [Example 9, MTP-b-C18[Invclick]]: the “Appearance at RT” value in data set [3] was “Precipitate”.

On to `CCCCCCCCCCCCCCCCCC(=O)NCCCC[C@H](NC(=O)CC[C@@H](NC(=O)[C@H](C)NC(=O)[C@@H](C)O[C@H]1[C@H](O)[C@@H](CO)OC(OCc2ccccc2)[C@@H]1NC(C)=O)C(N)=O)C(N)=O` (stereo partly shown) [Example 10, MTP-b-C18], for which the “Appearance at RT” value in data set [3] is on record as “Precipitate”.

Take `CCCCCCCCCCCCCCCCCCNC(=O)CC[C@@H](NC(=O)[C@H](C)NC(=O)[C@@H](C)O[C@H]1[C@H](O)[C@@H](CO)OC(O)[C@@H]1NC(C)=O)C(N)=O` (stereo partly shown) [Example 11, MDP-C18]: the “Appearance at 37° C.” value in data set [2] was “suspension”. Also, the “Appearance at RT” value in data set [2] is reported as “suspension”; in data set [3] it was “Precipitate”.

`CCCCCCCCCCCCCCCCCC(=O)OC[C@H](COC(=O)NCCCC[C@H](NC(=O)CC[C@@H](NC(=O)[C@H](C)NC(=O)[C@@H](C)O[C@H]1[C@H](O)[C@@H](CO)OC(OCc2ccccc2)[C@@H]1NC(C)=O)C(N)=O)C(N)=O)OC(=O)CCCCCCCCCCCCCCCCC` (stereo partly shown) [Example 13, MTP-b-DSG]: in data set [1], the “HPLC-ELSD t” value is reported as 5.49 min. In data set [2], the “Appearance at 37° C.” value is given as “suspension” and the “Appearance at RT” value was “suspension”. The “Appearance at RT” value in data set [3] was “Gel/precipitate”. Besides, the “NOD2 activation” value at human NOD2 (hNOD2) is given as “able to activate NOD2, but seemingly to a lesser extent”.

Take `CCCCCCCCCCCCCCCC(=O)OC[C@H](COP(=O)(O)OCCNC(=O)[C@H](C)NC(=O)CC[C@@H](NC(=O)[C@H](C)NC(=O)[C@@H](C)O[C@H]1[C@H](O)[C@@H](CO)OC(OCc2ccccc2)[C@@H]1NC(C)=O)C(N)=O)OC(=O)CCCCCCCCCCCCCCC` (stereo partly shown) [Example 14, MTP(Bn)-a-DPPE]: in data set [1], the “HPLC-ELSD t” value was 3.5 min and the “HPLC-MS t” value was 3.61 min.

With `CCCCCCCCCCCCCCCCCC(=O)OC[C@H]1OC(O)[C@H](NC(C)=O)[C@@H](O[C@H](C)C(=O)N[C@@H](C)C(=O)N[C@H](CCC(=O)O)C(N)=O)[C@@H]1O` (stereo partly drawn) [MDP-C18[mur], N-Acetylmuramyl-L-Alanyl-D-Isoglutamine-6-O-Stearoyl, reference compound], the “HPLC-MS t” value in data set [1] turned out to be 0.95 min. Also, in data set [2], the “Appearance at 37° C.” value is recorded as “clear” and the “Appearance at RT” value is recorded as “clear”. In data set [3], the “Appearance at RT” value is “Clear”.

`CCCCCCCCCCCCCCCC(=O)OC[C@H](COP(=O)(O)OCCNC(=O)[C@H](C)NC(=O)CC[C@@H](NC(=O)[C@H](C)NC(=O)[C@@H](C)O[C@H]1[C@H](O)[C@@H](CO)OC(OCc2ccccc2)[C@@H]1NC(C)=O)C(N)=O)OC(=O)CCCCCCCCCCCCCCC` (stereo partly shown) [MTP(Bn)-a-DPPE]: the “Oxidative degradation, products by HPLC-MS” value in data set [4] is listed as “mainly degraded via oxidation of the Bn-group to a benzoate group (+14) followed by hydrolysis of the benzoate (−104)”.

Regarding `CCCCCCCCCCCCCCCC(=O)OC[C@H](COP(=O)(O)OCCNC(=O)[C@H](C)NC(=O)CC[C@@H](NC(=O)[C@H](C)NC(=O)[C@@H](C)O[C@H]1[C@H](O)[C@@H](CO)OC(O)[C@@H]1NC(C)=O)C(N)=O)OC(=O)CCCCCCCCCCCCCCC` (stereo partly drawn) [Mifamurtide, N—(N-Acetylmuramoyl)-L-alanyl-D-alpha-glutaminyl-N-[(7R)-4-hydroxy-4-oxido-10-oxo-7-[(1-oxohexadecyl)oxy]-3,5,9-trioxa-4-phosphapentacos-1-yl]-L-alaninamide, reference compound], in data set [1], the “HPLC-ELSD t” value is given as 3.04 min and the “HPLC-MS t” value is 2.85 min. In data set [2], the “Appearance at 37° C.” value is “clear” and the “Appearance at RT” value is listed as “hazy”. Further, the “Appearance at RT” value in data set [3] is listed as “Clear”.
